Experimental data from patent US20140213513A1 (Sanofi, priority 2012, published 2014).
*1 amine or outer side, *2 acyl side, *3 side chain or, on linkers, in order; H or OH if unused. Where a SMILES comes first, the peptide text is derived from it. Side-chain parts run from the residue outwards. [ ]: non-standard residue; d: D form. The star is where a group is joined. γGlu = O=C(O)[C@H](CCC(=O)[*:2])N[*:1]; Palmitoyl = CCCCCCCCCCCCCCCC(=O)*; Aib = CC(C)(N)C(=O)O

Legend:
Type in all cases: cell-based
Settings in all cases: Table 7; cAMP formation
[1] = biological target: T1, human GLP-1 receptor (hGLP-1 R) (Homo sapiens, UniProt P43220); assay: cAMP response of HEK-293 cells stably expressing human GLP-1 receptor (HTRF)
T1 construct: expressed in transfected cells
How it was run: (§1)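 Cells grown overnight in DMEM/10% FBS, detached with accutase, resuspended in HBSS with 20 mM HEPES, 0.1% BSA and 2 mM IBMX at 400000 cells/ml. Test compound added and incubated 30 minutes at room temperature; cellular cAMP then measured by HTRF.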

[2] = biological target: T2, human glucagon receptor (hGLUC R) (Homo sapiens, UniProt P47871); assay: cAMP response of HEK-293 cells stably expressing human glucagon receptor (HTRF)
T2 construct: expressed in transfected cells
How it was run: as §1

[3] = biological target: T3, human GIP receptor (hGIP R) (Homo sapiens, UniProt P48546); assay: cAMP response of HEK-293 cells stably expressing human GIP receptor (HTRF)
T3 construct: expressed in transfected cells
T3 sequence (P48546 22-466): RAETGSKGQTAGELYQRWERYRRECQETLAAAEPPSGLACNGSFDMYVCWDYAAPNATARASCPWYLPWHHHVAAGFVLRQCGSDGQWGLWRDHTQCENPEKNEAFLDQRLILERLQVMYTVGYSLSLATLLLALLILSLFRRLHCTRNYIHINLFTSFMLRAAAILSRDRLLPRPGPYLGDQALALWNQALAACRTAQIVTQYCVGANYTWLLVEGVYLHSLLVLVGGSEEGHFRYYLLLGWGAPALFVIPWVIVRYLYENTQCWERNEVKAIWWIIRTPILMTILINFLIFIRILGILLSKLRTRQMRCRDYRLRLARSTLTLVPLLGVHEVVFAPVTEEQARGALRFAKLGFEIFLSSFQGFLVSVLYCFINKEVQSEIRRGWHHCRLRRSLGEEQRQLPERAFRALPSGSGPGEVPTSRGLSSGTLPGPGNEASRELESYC
Method: cAMP content of cells was determined using a kit from Cisbio Corp. (cat. no. 62AM4PEC) based on HTRF (Homogenous Time Resolved Fluorescence). For preparation, cells were split into T175 culture flasks and grown overnight to near confluency in medium (DMEM/10% FBS). Medium was then removed and cells washed with PBS lacking calcium and magnesium, followed by proteinase treatment with accutase (Sigma-Aldrich cat. no. A6964). Detached cells were washed and resuspended in assay buffer (1×HBSS; 20 mM HEPES, 0.1% BSA, 2 mM IBMX) and cellular density determined. They were then diluted to 400000 cells/ml and 25 μl-aliquots dispensed into the wells of 96-well plates. For measurement, 25 μl of test compound in assay buffer was added to the wells, followed by incubation for 30 minutes at room temperature.

T1 sequence (P43220 24-463): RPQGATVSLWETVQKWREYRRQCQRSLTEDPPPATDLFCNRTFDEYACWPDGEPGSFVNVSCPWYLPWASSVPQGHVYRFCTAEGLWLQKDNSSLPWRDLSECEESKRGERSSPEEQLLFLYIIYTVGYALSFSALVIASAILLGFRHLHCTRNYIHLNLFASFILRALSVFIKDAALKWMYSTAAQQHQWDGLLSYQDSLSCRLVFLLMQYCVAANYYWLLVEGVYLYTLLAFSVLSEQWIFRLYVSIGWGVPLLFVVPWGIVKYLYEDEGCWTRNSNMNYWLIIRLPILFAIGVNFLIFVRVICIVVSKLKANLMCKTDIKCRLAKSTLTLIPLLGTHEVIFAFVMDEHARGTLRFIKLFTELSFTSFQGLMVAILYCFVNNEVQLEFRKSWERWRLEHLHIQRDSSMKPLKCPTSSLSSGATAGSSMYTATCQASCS
T2 sequence (P47871 26-477): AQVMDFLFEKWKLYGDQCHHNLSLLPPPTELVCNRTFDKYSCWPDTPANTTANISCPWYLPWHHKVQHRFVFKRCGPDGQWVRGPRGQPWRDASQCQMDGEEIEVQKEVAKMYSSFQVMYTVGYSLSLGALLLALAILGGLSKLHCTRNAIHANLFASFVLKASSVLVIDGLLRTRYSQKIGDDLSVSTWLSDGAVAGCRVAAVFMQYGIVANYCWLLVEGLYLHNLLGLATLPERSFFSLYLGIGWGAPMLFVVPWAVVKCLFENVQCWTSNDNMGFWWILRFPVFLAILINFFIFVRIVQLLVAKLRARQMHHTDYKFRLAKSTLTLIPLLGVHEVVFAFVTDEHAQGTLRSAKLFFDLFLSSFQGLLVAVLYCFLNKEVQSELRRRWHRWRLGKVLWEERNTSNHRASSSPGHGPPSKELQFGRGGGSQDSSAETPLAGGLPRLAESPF

SMILES	EC50 [1] [pM]	EC50 [2] [pM]	EC50 [3] [pM]
CCCCCCCCCCCCCCCC(=O)N[C@@H](CCC(=O)NCCCC[C@H](NC(=O)[C@H](CCC(N)=O)NC(=O)[C@H](CCCCN)NC(=O)[C@H](CO)NC(=O)[C@H](CC(C)C)NC(=O)[C@H](CC(=O)O)NC(=O)[C@H](CO)NC(=O)[C@@H](NC(=O)[C@H](Cc1ccccc1)NC(=O)[C@@H](NC(=O)CNC(=O)[C@H](CCC(N)=O)NC(=O)C(C)(C)NC(=O)[C@@H](N)Cc1ccc(O)cc1)[C@@H](C)O)[C@@H](C)O)C(=O)N[C@@H](CCC(=O)O)C(=O)N[C@@H](CO)C(=O)N[C@@H](CCCCN)C(=O)N[C@@H](C)C(=O)N[C@@H](C)C(=O)N[C@@H](CCC(N)=O)C(=O)N[C@@H](CC(=O)O)C(=O)N[C@@H](Cc1ccccc1)C(=O)N[C@H](C(=O)N[C@@H](CCC(=O)O)C(=O)N[C@@H](Cc1c[nH]c2ccccc12)C(=O)N[C@@H](CC(C)C)C(=O)N[C@@H](CCCCN)C(=O)N[C@@H](C)C(=O)NCC(=O)NCC(=O)N1CCC[C@H]1C(=O)N[C@@H](CO)C(=O)N[C@@H](CO)C(=O)NCC(=O)N[C@@H](C)C(=O)N1CCC[C@H]1C(=O)N1CCC[C@H]1C(=O)N1CCC[C@H]1C(=O)N[C@@H](CO)C(N)=O)[C@@H](C)CC)C(=O)O [SEQ ID NO: 39, Y-Aib-Q-G-T-F-T-S-D-L-S-K-Q-K(yE-x53)-ESKAAQDFIEWLKAGGPSSGAPPPS-NH2] (H-Y[Aib]QGTFTSDLSKQK([γGlu-Palmitoyl])ESKAAQDFIEWLKAGGPSSGAPPPS-NH2)	4.5	19.2	38.5
CCCCCCCCCCCCCCCC(=O)N[C@@H](CCC(=O)NCCCC[C@H](NC(=O)[C@H](CCC(N)=O)NC(=O)[C@@H](NC(=O)[C@H](CO)NC(=O)[C@H](CC(C)C)NC(=O)[C@H](CC(=O)O)NC(=O)[C@H](CO)NC(=O)[C@@H](NC(=O)[C@H](Cc1ccccc1)NC(=O)[C@@H](NC(=O)CNC(=O)[C@H](CCC(N)=O)NC(=O)C(C)(C)NC(=O)[C@@H](N)Cc1ccc(O)cc1)[C@@H](C)O)[C@@H](C)O)[C@@H](C)CC)C(=O)N[C@@H](CCC(=O)O)C(=O)N[C@@H](CCCCN)C(=O)N[C@@H](CCCNC(=N)N)C(=O)N[C@@H](C)C(=O)NC(C)(C)C(=O)NC(C)(C)C(=O)N[C@@H](CCC(=O)O)C(=O)N[C@@H](Cc1ccccc1)C(=O)N[C@H](C(=O)N[C@@H](CCC(=O)O)C(=O)N[C@@H](Cc1c[nH]c2ccccc12)C(=O)N[C@@H](CC(C)C)C(=O)N[C@@H](CCCCN)C(=O)N[C@@H](CC(N)=O)C(=O)N[C@H](C(=O)NCC(=O)N1CCC[C@H]1C(=O)N[C@@H](CO)C(=O)N[C@@H](CO)C(=O)NCC(=O)N[C@@H](C)C(=O)N1CCC[C@H]1C(=O)N1CCC[C@H]1C(=O)N1CCC[C@H]1C(=O)N[C@@H](CO)C(N)=O)[C@@H](C)O)[C@@H](C)CC)C(=O)O [SEQ ID NO: 22, Y-Aib-Q-G-T-F-T-S-D-L-S-I-Q-K(yE-x53)-E-K-R-A-Aib-Aib-E-F-I-E-W-L-K-N-T-G-P-S-S-G-A-P-P-P-S-NH2] (H-Y[Aib]QGTFTSDLSIQK([γGlu-Palmitoyl])EKRA[Aib][Aib]EFIEWLKNTGPSSGAPPPS-NH2)	8.5	2220	102
CCCCCCCCCCCCCCCC(=O)N[C@@H](CCC(=O)NCCCC[C@H](NC(=O)[C@H](CCC(N)=O)NC(=O)[C@@H](NC(=O)[C@H](CO)NC(=O)[C@H](CC(C)C)NC(=O)[C@H](CC(=O)O)NC(=O)[C@H](CO)NC(=O)[C@@H](NC(=O)[C@H](Cc1ccccc1)NC(=O)[C@@H](NC(=O)CNC(=O)[C@H](CCC(N)=O)NC(=O)C(C)(C)NC(=O)[C@@H](N)Cc1ccc(O)cc1)[C@@H](C)O)[C@@H](C)O)[C@@H](C)CC)C(=O)N[C@@H](CCC(=O)O)C(=O)N[C@@H](CCCCN)C(=O)N[C@@H](CCCNC(=N)N)C(=O)N[C@@H](C)C(=O)N[C@@H](C)C(=O)N[C@@H](CC(C)C)C(=O)N[C@@H](CCC(=O)O)C(=O)N[C@@H](Cc1ccccc1)C(=O)N[C@H](C(=O)N[C@@H](CCC(=O)O)C(=O)N[C@@H](Cc1c[nH]c2ccccc12)C(=O)N[C@@H](CC(C)C)C(=O)N[C@@H](CCCCN)C(=O)N[C@@H](CC(N)=O)C(=O)N[C@H](C(=O)NCC(=O)N1CCC[C@H]1C(=O)N[C@@H](CO)C(=O)N[C@@H](CO)C(=O)NCC(=O)N[C@@H](C)C(=O)N1CCC[C@H]1C(=O)N1CCC[C@H]1C(=O)N1CCC[C@H]1C(=O)N[C@@H](CO)C(N)=O)[C@@H](C)O)[C@@H](C)CC)C(=O)O [SEQ ID NO: 33, Y-Aib-Q-G-T-F-T-S-D-L-S-I-Q-K(yE-x53)-EKRAALEFIEWLKNTGPSSGAPPPS-NH2] (H-Y[Aib]QGTFTSDLSIQK([γGlu-Palmitoyl])EKRAALEFIEWLKNTGPSSGAPPPS-NH2)	8.1	109	88.2
CCCCCCCCCCCCCCCCCC(=O)N[C@@H](CCC(=O)NCCCC[C@H](NC(=O)[C@H](CCC(N)=O)NC(=O)[C@@H](NC(=O)[C@H](CO)NC(=O)[C@H](CC(C)C)NC(=O)[C@H](CC(=O)O)NC(=O)[C@H](CO)NC(=O)[C@@H](NC(=O)[C@H](Cc1ccccc1)NC(=O)[C@@H](NC(=O)CNC(=O)[C@H](CCC(N)=O)NC(=O)C(C)(C)NC(=O)[C@@H](N)Cc1ccc(O)cc1)[C@@H](C)O)[C@@H](C)O)[C@@H](C)CC)C(=O)N[C@@H](CC(=O)O)C(=O)N[C@@H](CCC(=O)O)C(=O)N[C@@H](CCC(N)=O)C(=O)N[C@@H](CCCNC(=N)N)C(=O)N[C@@H](C)C(=O)N[C@@H](CCCCN)C(=O)N[C@@H](CCC(=O)O)C(=O)N[C@@H](Cc1ccccc1)C(=O)N[C@H](C(=O)N[C@@H](CCC(=O)O)C(=O)N[C@@H](Cc1c[nH]c2ccccc12)C(=O)N[C@@H](CC(C)C)C(=O)N[C@@H](CCCCN)C(=O)N[C@@H](C)C(=O)NCC(=O)NCC(=O)N1CCC[C@H]1C(=O)N[C@@H](CO)C(=O)N[C@@H](CO)C(=O)NCC(=O)N[C@@H](C)C(=O)N1CCC[C@H]1C(=O)N1CCC[C@H]1C(=O)N1CCC[C@H]1C(=O)N[C@@H](CO)C(N)=O)[C@@H](C)CC)C(=O)O [SEQ ID NO: 31, Y-Aib-Q-G-T-F-T-S-D-L-S-I-Q-K(yE-x70)-DEQRAKEFIEWLKAGGPSSGAPPPS-NH2]	14.8	4.1	13.1
CCCCCCCCCCCCCCCC(=O)NCCCC[C@H](NC(=O)[C@H](CCC(N)=O)NC(=O)[C@@H](NC(=O)[C@H](CO)NC(=O)[C@H](CC(C)C)NC(=O)[C@H](CC(=O)O)NC(=O)[C@H](CO)NC(=O)[C@@H](NC(=O)[C@H](Cc1ccccc1)NC(=O)[C@@H](NC(=O)CNC(=O)[C@H](CCC(N)=O)NC(=O)C(C)(C)NC(=O)[C@@H](N)Cc1ccc(O)cc1)[C@@H](C)O)[C@@H](C)O)[C@@H](C)CC)C(=O)N[C@@H](CCC(=O)O)C(=O)N[C@@H](CCCCN)C(=O)N[C@@H](CCCNC(=N)N)C(=O)N[C@@H](C)C(=O)N[C@H](C(=O)NC(C)(C)C(=O)N[C@@H](CC(C)C)C(=O)N[C@@H](Cc1ccccc1)C(=O)N[C@H](C(=O)N[C@@H](CCC(=O)O)C(=O)N[C@@H](Cc1c[nH]c2ccccc12)C(=O)N[C@@H](CC(C)C)C(=O)N[C@@H](CCCCN)C(=O)N[C@@H](C)C(=O)NCC(=O)NCC(=O)N1CCC[C@H]1C(=O)N[C@@H](CO)C(=O)N[C@@H](CO)C(=O)NCC(=O)N[C@@H](C)C(=O)N1CCC[C@H]1C(=O)N1CCC[C@H]1C(=O)N1CCC[C@H]1C(=O)N[C@@H](CO)C(N)=O)[C@@H](C)CC)C(C)C [SEQ ID NO: 25, Y-Aib-Q-G-T-F-T-S-D-L-S-I-Q-K(x53)-E-K-R-A-V-Aib-L-F-I-E-W-L-K-A-G-G-P-S-S-G-A-P-P-P-S-NH2] (H-Y[Aib]QGTFTSDLSIQK(Palmitoyl)EKRAV[Aib]LFIEWLKAGGPSSGAPPPS-NH2)	37	2030	176
